Legend:
rat EP1 receptor = biological target: T1, rat EP1 receptor (Rattus norvegicus, UniProt P70597); experiment: Test for confirmation of EP1 receptor antagonism: inhibition of prostaglandin E2-induced increase in intracellular calcium concentration in rat EP1 receptor-expressing COS-1 cells; assay type: cell-based; details: prostaglandin E2 10 nM, intracellular calcium fluorescence signal
T1 construct: expressed in transfected cells; host or cells: COS-1 cells, transient transfection with Lipofectamine 2000
T1 sequence (P70597 1-405): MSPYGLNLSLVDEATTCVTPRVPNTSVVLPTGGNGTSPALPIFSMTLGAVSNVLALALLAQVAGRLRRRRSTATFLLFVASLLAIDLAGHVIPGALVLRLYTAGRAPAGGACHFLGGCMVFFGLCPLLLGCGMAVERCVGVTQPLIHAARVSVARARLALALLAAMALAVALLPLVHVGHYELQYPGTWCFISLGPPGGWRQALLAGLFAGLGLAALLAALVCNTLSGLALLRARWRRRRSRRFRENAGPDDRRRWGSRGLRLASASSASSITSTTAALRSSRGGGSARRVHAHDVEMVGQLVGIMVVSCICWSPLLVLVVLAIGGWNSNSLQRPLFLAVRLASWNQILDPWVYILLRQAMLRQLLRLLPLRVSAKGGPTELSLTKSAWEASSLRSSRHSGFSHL
Protocol: Test for Confirmation of EP1 Receptor Antagonism
(1) Preparation of Rat EP1 Expression Vector
Using Rat Kidney BD Marathon-Ready cDNA (Nippon Becton Dickinson Company, Ltd.) as a template, and using a forward primer shown in (SEQ ID NO:1) and a reverse primer shown in (SEQ ID NO:2), a first run of PCR was carried out using KOD-Plus-Ver 2.0 (Toyobo Co., Ltd.). Further, using this amplification product as a template, and using a forward primer shown in (SEQ ID NO:3) and a reverse primer shown in (SEQ ID NO:4), a second run of PCR was carried out in the same manner. The amplification product obtained by the second run of PCR was incorporated into a vector (pcDNA3.1 D/V5-His-TOPO (registered trademark), Invitrogen Japan K. K.). By a conventional method, the vector containing this amplification product was introduced into E. coli (One Shot TOP10 Competent Cells, Invitrogen Corporation) and transformed. This transformed E. coli was cultured in an LB agar medium for one day. After the culture, colonies were selected and cultured in an LB liquid medium containing 50 μg/mL of ampicillin. After the culture, the vector was purified using a QIAprep Spin Miniprep Kit (Qiagen K. K.). The base sequence of the insertion site of this vector (SEQ ID NO:5) was compared with the rat EP1 base sequence (Ptger1) registered as Accession No. NM_013100 in a publicly-known database (NCBI), and as a result, the base sequences completely matched except for a single base. Further, the amino acid sequence translated by the base sequence completely matched the amino acid sequence of the rat EP1 receptor registered as an NCBI Accession No. NP_037232. Therefore, it was confirmed that the cloned gene sequence was a base sequence of the rat EP1 receptor and the obtained amino acid sequence was that of the rat EP1 receptor. The pcDNA3.1 D/V5-His-TOPO (registered trademark) into which the nucleic acid shown in (SEQ ID NO:5) had been inserted was taken as a rat EP1-expressing vector.
(2) Preparation of Rat EP1 Receptor-Expressing Cells
COS-1 cells (Dainippon Sumitomo Pharma Co., Ltd.) were cultured until they reached confluence in an incubator at 37° C. under a 5% CO2 gas condition, using a D-MEM liquid medium (high glucose and L-glutamine contained, Invitrogen Corporation) to which a penicillin-streptomycin solution (Invitrogen Corporation, final concentration: 100 U/mL as benzylpenicillin; 100 μg/mL as streptomycin) as an antibiotic, MEM nonessential amino acids (Invitrogen Corporation, final concentration: 0.1 mM), and fetal calf serum (Sanko Junyaku Co., Ltd., final concentration: 10%) were added.
(2-2) COS-1 Cell Subculture
The cells that had reached confluence were stripped with 0.05% trypsin/0.53 mM EDTA•4Na (Invitrogen Japan K. K.) and resuspended in the liquid medium. The resuspended cells were diluted and cultured in the liquid medium at a spread ratio from 1:4 to 1:8.
(2-3) Preparation of Cells for Introduction of Rat EP1-Expressing Vector
The cells that had reached confluence were stripped with 0.05% trypsin/0.53 mM EDTA•4Na, and resuspended in a D-MEM liquid medium (high glucose and L-glutamine contained, Invitrogen Corporation) to which MEM nonessential amino acids (final concentration: 0.1 mM) and fetal calf serum (final concentration: 10%) were added. In each well of a Poly D-lysine-coated 96-well microplate (BD BioCoat (registered trademark), Nippon Becton Dickinson Company, Ltd.), this resuspended cell suspension culture was prepared to be 5×10^4 cells/well in 100 μL of the liquid medium, and 100 μL of the cell suspension was dispensed and seeded in each well. After seeding, the cells were cultured in an incubator at 37° C. under a 5% CO2 gas condition. Once the cells for introduction of a rat EP1-expressing vector were adhered (about 2 hours after seeding), introduction of the rat EP1-expressing vector was carried out in the following order.
(2-4) Introduction of Rat EP1-Expressing Vector […]

Female SD rats = experiment: Inhibitory effect of compound on sulprostone-induced bladder contraction; assay type: in vivo, rat; details: urethane-anesthetized female SD rats, sulprostone 0.3 mg/kg s.c., test agent 1.0 mg/kg intravenously; for Bladder Contraction Inhibition Rate (%) 15 minutes: 15 minutes after administration; for Bladder Contraction Inhibition Rate (%) 60 minutes: 60 minutes after administration
Excerpt: Inhibitory Effect of Compound on Sulprostone-Induced Bladder Contraction
Female SD rats were used. Under urethane anesthesia (1.25 g/kg, administered subcutaneously), a tracheal cannula (Size 8, HIBIKI) and a femoral vein cannula for administration (23G needle-equipped PESO) were inserted thereinto. The bladder cannula (PE50) was inserted from the bladder apex. The bladder cannula was connected to a three-way stopcock, and then one port was connected to a pressure transducer and the other port was connected to a syringe filled with saline. Saline was injected into the bladder at an injection rate of 3.6 mL/hour and the bladder contraction pressure was recorded at the time of injection with a recorder (RECTI-HORITZ-8K, NEC Corporation). After 10 minutes from stabilization of the bladder contraction pressure during urination, sulprostone was administered subcutaneously (0.3 mg/kg). Subsequently, once the bladder contraction pressure became constant, a test agent was administered intravenously (1.0 mg/kg). An average bladder contraction pressure during the 10 minute period before administration of sulprostone was used as a baseline (0%). Further, an average bladder contraction pressure during the 10 minute period directly before administration of the test agent was used as a maximum bladder contraction pressure (100%). The average bladder contraction pressures were measured for a 5 minute period before and after 15 minutes and 60 minutes from administration of the test agent. The ratio of this measured value to the maximum bladder contraction pressure was calculated by the following equation and regarded as an average bladder contraction rate after administration of the test agent: (Average Bladder Contraction Rate after Administration of Test Agent (%))=[(Average Bladder Contraction Pressure after Administration of Test Agent)/(Maximum Bladder Contraction Pressure)]×100 EQUATION 1
In addition, the difference between the maximum bladder contraction rate (100%) and the average bladder contraction rate (%) after administration of the test agent was calculated by the following equation and regarded as a bladder contraction inhibition rate of the test agent: (Bladder Contraction Inhibition Rate)=100%−(Average Bladder Contraction Rate after Administration of Test Agent (%)) EQUATION 2

IC50 (rat EP1 receptor)	SMILES	Bladder Contraction Inhibition Rate (%) 15 minutes (Female SD rats)	Bladder Contraction Inhibition Rate (%) 60 minutes (Female SD rats)
19 nM	CCS(=O)(=O)NC(=O)c1cccc(Cn2c(-c3ccccc3)cc3cc(OC)c(Cl)cc32)n1 [Example 1-6, 6-(6-chloro-5-methoxy-2-phenylindol-1-ylmethyl)-N-(ethanesulfonyl)pyridine-2-carboxamide]	70.0%	35.8%
34 nM	COc1ccc2c(c1)cc(-c1ccccc1)n2Cc1cccc(-c2nnn[nH]2)n1 [Example 2-1, 5-Methoxy-2-phenyl-1-[6-(1H-1,2,3,4-tetrazol-5-yl)pyridin-2-ylmethyl]-1H-indole]	73.2%	78.1%
24 nM	COc1ccc2c(c1)cc(C1(C)CC1)n2Cc1cccc(-c2nnn[nH]2)n1 [Example 5-5, 5-methoxy-2-(1-methylcyclopropyl)-1-[6-(1H-1,2,3,4-tetrazol-5-yl)pyridin-2-ylmethyl]-1H-indole]	85.3%	55.2%
47 nM	COc1ccc2c(c1)cc(-c1ccccc1)n2Cc1cccc(C(=O)NS(C)(=O)=O)n1 [Example 1-1, N-(Methanesulfonyl)-6-(5-methoxy-2-phenylindol-1-ylmethyl)pyridine-2-carboxamide]	67.3%	75.5%
